According to article PMC10265666, “Lung SPLUNC1 Peptide Derivatives in the Lipid Membrane Headgroup Kill Gram-Negative Planktonic and Biofilm Bacteria” (Biomacromolecules, 2023):
Where “and” joins values, the source holds several entries; their conditions need not be identical. Equal entries are not always repeated.

What was measured:
[1] = test system: Klebsiella pneumoniae, 24 clinical isolates and 1 lab strain; type: cell-based; conditions: tested G(−) bacteria (K. pneumoniae)
Experimental: Minimum inhibitory concentration (MIC, defined as the minimum AMP concentration to prevent bacterial growth) and biofilm data were obtained by UV–vis spectroscopy using a BioTek Epoch 2 microplate reader.
K. pneumoniae substrains were grown overnight using 50 mL plastic conical tubes on a shaker platform at 37 °C. The following day, serial dilutions of the four SPLUNC1 peptides and LL-37 were tested against these 25 substrains of K. pneumoniae using a 96-well plate. […] Following the addition of the peptides at the tested concentrations from serial dilutions to the K. pneumoniae substrains, the plates were incubated at 37 °C for 16 h. Then, visible spectroscopy at λ = 570 nm was performed to determine the bacterial absorption in each well. Those wells with an optical density reading above a threshold value were deemed resistant to the peptide, while those that were below the threshold value were deemed sensitive to the peptide. The threshold value was determined using Gen5 software with the Di lab Growth Inhibition Assay protocol.
Average MICs and standard deviations were calculated by first averaging the absorbances as a function of AMP concentration in all of the bacterial strains from four total data sets. Then, the average MICs were determined from the averaged absorbances. The standard deviations of the MICs were calculated from each of the absorbances that were used to calculate the average. Then, the standard deviations were averaged across substrains for the graph. These procedures were used to obtain an average MIC with standard deviation across all 25 substrains for one peptide, in order to compare peptide efficacy. Typically, many more substrains are used to obtain an average MIC, so this average MIC may change if thousands of substrains are compared.

[2] = test system: eukaryotic cells vs bacteria; experiment: Therapeutic index (eukaryotic cell kill concentration / bacterial kill concentration); type: cell-based
Experimental: But more important than cytotoxicity is the therapeutic index (TI), which is the concentration at which ≥90% of eukaryotic cells are killed divided by the concentration at which ≥90% of bacteria are killed. For A4-153, this TI value is an estimated ≈ 128 μM/16 μM ≈ 8. TI for A4-157 is an estimated 128 μM/24 μM ≈ 5, and the TI for A4-183 is an estimated 64 μM/20 μM ≈ 3.

[3] = Circular dichroism secondary structure in Euk33 ULVs; type: physicochemical; conditions: 10 μM peptide, 15 mM PBS pH 7, 37 °C
[4] = Circular dichroism secondary structure in G(−)IM ULVs; type: physicochemical; conditions: 10 μM peptide, 15 mM PBS pH 7, 37 °C
Experimental: Unilamellar vesicles (ULVs) of ∼600 Å diameter were prepared using an Avanti extruder: 200 μL of 20 mg/ml G(−)IM lipid in 15 mM PBS was extruded 21 times through Nucleopore filters of size 500 Å using 0.2 mL Hamilton syringes in the Avanti extruder. The final concentration of G(−)IM lipid in the ULVs was determined gravimetrically to be 15 mg/ml. Concentrated ULVs were added to 3 mL of 10 μM peptide in 15 mM PBS at pH 7 to create lipid/peptide molar ratios between 0:1 and 70:1. The samples remained at room temperature for ∼16 h before the CD measurement. Data were collected in 3 mL quartz cuvettes using a Jasco 1500 CD spectrophotometer at 37 °C in the Center for Nucleic Acids Science and Technology at Carnegie Mellon University. The samples were scanned from 200 to 240 nm 20 times, and the ellipticity (ϵ) results were averaged. Temperature was controlled at 37 °C via a Peltier element and water circulation through the sample compartment. Nitrogen gas was used at a flow rate between 20 and 25 ft^3/h (CFH). The parameters for scanning were: speed 100 nm/min, step size 1.0 nm, response time 1 second, bandwidth 1 nm, and sensitivity of 20 mdeg. OriginPro 2019 (OriginLab, Northampton, MA) was used to carry out a linear least-squares fit of the smoothed ellipticity traces to four secondary structural motifs representing α-helix, β-sheet, β-turn, and random coil.[20] This analysis gives a percentage match of each of the secondary structural motifs to the total sample ellipticity. Data were finally converted to mean residue ellipticity, taking into account the peptide concentration (10 μMolar) and number of amino acids (N), using the equation: MRE = (10^4/N)ϵ deg cm^2/dmol.

[5] = G(−)IM/peptide molar ratio 10:1
[6] = G(−)IM/peptide molar ratio 15:1
[7] = G(−)IM/peptide molar ratio 20:1
[8] = G(−)IM/peptide molar ratio 25:1
[9] = G(−)IM/peptide molar ratio 30:1
[10] = G(−)IM/peptide molar ratio 40:1
[11] = G(−)IM/peptide molar ratio 50:1
[12] = G(−)IM/peptide molar ratio 70:1

LL-37: the human cathelicidin, natural AMP control [reference compound]
antibacterial efficacy [1]: ineffective

CC(C)[C@H](NC(=O)CNC(=O)CNC(=O)[C@@H](NC(=O)[C@H](Cc1c[nH]c2ccccc12)NC(=O)CNC(=O)[C@H](CCCCN)NC(=O)[C@@H](NC(=O)[C@H](CCCCN)NC(=O)[C@H](CCCCN)NC(=O)[C@H](Cc1ccccc1)NC(=O)[C@H](Cc1ccccc1)NC(=O)[C@H](CCCCN)NC(=O)[C@H](CCCCN)NC(=O)[C@@H](N)Cc1ccccc1)C(C)C)C(C)C)C(=O)N[C@@H](Cc1c[nH]c2ccccc12)C(=O)NCC(=O)N[C@@H](CCCCN)C(=O)N[C@H](C(=O)N[C@@H](CCCCN)C(=O)N[C@@H](CO)C(=O)N[C@H](C(=O)N[C@H](C(=O)N[C@@H](CCCCN)C(=O)O)C(C)C)C(C)C)C(C)C (stereo in doubt) [A4-157]
concentration at which ≥90% of bacteria are killed ([2]; denominator of TI): 24 µM | concentration at which ≥90% of eukaryotic cells are killed (estimated) ([2]; numerator of TI): ≈ 128 μM | Random ([3]; Euk33/peptide molar ratio 0:1): 61.7% | α-helix ([3]; Euk33/peptide molar ratio 0:1): 4.57% | β-sheet ([3]; Euk33/peptide molar ratio 0:1): 33.6% | β-turn ([3]; Euk33/peptide molar ratio 0:1): 0% | Random ([3]; Euk33/peptide molar ratio 5:1): 64.2% | α-helix ([3]; Euk33/peptide molar ratio 5:1): 3.3% | β-sheet ([3]; Euk33/peptide molar ratio 5:1): 32.5% | β-turn ([3]; Euk33/peptide molar ratio 5:1): 0% | Random ([3]; Euk33/peptide molar ratio 10:1): 64.4% | α-helix ([3]; Euk33/peptide molar ratio 10:1): 7.3% | β-sheet ([3]; Euk33/peptide molar ratio 10:1): 28.3% | β-turn ([3]; Euk33/peptide molar ratio 10:1): 0% | Random ([3]; Euk33/peptide molar ratio 30:1): 59.1% | α-helix ([3]; Euk33/peptide molar ratio 30:1): 10% | β-sheet ([3]; Euk33/peptide molar ratio 30:1): 30.9% | β-turn ([3]; Euk33/peptide molar ratio 30:1): 0% | Random ([3]; Euk33/peptide molar ratio 70:1): 42.5% | α-helix ([3]; Euk33/peptide molar ratio 70:1): 7.4% | β-sheet ([3]; Euk33/peptide molar ratio 70:1): 50.1% | β-turn ([3]; Euk33/peptide molar ratio 70:1): 0% | Random ([4]; G(−)IM/peptide molar ratio 0:1): 61.7% | α-helix ([4]; G(−)IM/peptide molar ratio 0:1): 4.57% | β-sheet ([4]; G(−)IM/peptide molar ratio 0:1): 33.6% | β-turn ([4]; G(−)IM/peptide molar ratio 0:1): 0% | Random ([4]; G(−)IM/peptide molar ratio 1:1): 61.7% | α-helix ([4]; G(−)IM/peptide molar ratio 1:1): 6.9% | β-sheet ([4]; G(−)IM/peptide molar ratio 1:1): 31.4% | β-turn ([4]; G(−)IM/peptide molar ratio 1:1): 0% | Random ([4]; G(−)IM/peptide molar ratio 5:1): 59.5% | α-helix ([4]; G(−)IM/peptide molar ratio 5:1): 15.1% | β-sheet ([4]; G(−)IM/peptide molar ratio 5:1): 25.4% | β-turn ([4]; G(−)IM/peptide molar ratio 5:1): 0% | Random [4, 5]: 52.6% | α-helix [4, 5]: 19.0% | β-sheet [4, 5]: 28.3% | β-turn [4, 5]: 0.1% | Random [4, 6]: 20.1% | α-helix [4, 6]: 46.0% | β-sheet [4, 6]: 33.9% | β-turn [4, 6]: 0% | Random [4, 7]: 26.5% | α-helix [4, 7]: 49.3% | β-sheet [4, 7]: 24.2% | β-turn [4, 7]: 0% | Random [4, 8]: 8.3% | α-helix [4, 8]: 61.0% | β-sheet [4, 8]: 28.5% | β-turn [4, 8]: 2.2% | Random [4, 9]: 8.1% | α-helix [4, 9]: 62.1% and 62% | β-sheet [4, 9]: 28.7% | β-turn [4, 9]: 1.1% | Random [4, 10]: 0% | α-helix [4, 10]: 59.5% | β-sheet [4, 10]: 40.5% | β-turn [4, 10]: 0% | Random [4, 11]: 1.0% | α-helix [4, 11]: 56.4% | β-sheet [4, 11]: 33.6% | β-turn [4, 11]: 0% | Random [4, 12]: 13.2% | α-helix [4, 12]: 51.2% | β-sheet [4, 12]: 35.6% | β-turn [4, 12]: 0%
